Assay results from patent publication EP3494850B1, “WET WIPE WITH HYDROXYACETOPHENON” (Dr. Schumacher GmbH, priority 2017, dated 2019).

System: Haut der Probanden
Assay: Patch test for skin tolerance on 50 subjects
Type: in vivo
Details: 48 h under occlusion on the back, read at 48 h and 72 h (erythema, scaling, fissures)
Text: Zur Prüfung der Hautverträglichkeit des Tränkungsmittels, mit dem erfindungsgemäße Feuchttücher getränkt sind, wird ein Patch-Test an 50 Probanden durchgeführt. Mit einem Patch-Test können dermatologische und kosmetische Produkte auf ihr irritatives Potential untersucht werden. Bei den 50 ausgewählten Personen im Alter zwischen 18 und 69 Jahren handelte es sich um 28 Hautgesunde, 2 Atopiker, 2 Allergiker und 18 Personen mit empfindlicher Haut.
Für den Patch-Test wurde eine gemäß der in Tabelle 1 (Beispiel 1) angegebenen Rahmenrezeptur zusammengesetzte O/W-Emulsion für 48 Stunden unverdünnt auf den Rücken der Probanden mit Hilfe von quadratischen Kunststoffkammern (allergEAZE® clear Patch Test Chambers; SmartPractice®, Phoenix, AZ) unter Okklusion appliziert. Als Positivkontrolle diente der Modellschadstoff Natriumlaurylsulfat (SDS) in einer Konzentration von 1 % in Wasser. Als negative Kontrolle diente Wasser.
Die Bewertung der Testreaktionen erfolgte nach 48 Stunden (30 Minuten nach der Entfernung der Okklusion) sowie nach 72 Stunden, wobei die Haut der Probanden jeweils hinsichtlich Erythem, Schuppung und Fissuren untersucht wurde.

## CCCCCCCCCCCCOS(=O)(=O)O [SDS, Natriumlaurylsulfat]
  Testpersonen mit Reaktion im Patch-Test: 14 Testpersonen
